Patent publication US20100279976A1, “USE OF ARTEMISININ AND ITS DERIVATIVES IN CANCER THERAPY” (SHANGHAI INSTITUTES FOR BIOLOGICAL SCIENCES, CAS, priority 2009, published 2010)

Columns and labels:
[1] = system: Hep3B hepatoma cells (p53 null); assay: MTT cell viability assay, Hep3B; format: cell-based; conditions: Homo sapiens, 48 h
Protocol: (§1) The effects of ART derivatives on the viability of the aforementioned cells may be determined using the MTT assay. Briefly, 2,000 cells per well were plated in triplicate in 96-well plates. After a 24-h incubation, the cells may be treated with varying concentrations of ART derivatives (0, 1, 5, 10, 25, 50, and 100 μmol/L) for 48 h. The MTT assay may be performed according to the manufacture's instruction and the resultant formazan crystals may be dissolved in DMSO (100 μL). The absorbance may be then recorded at 540 nm. The effects of ART derivatives on cell viability may be assessed by comparing the percent cell viability of the treated cells with the vehicle (DMSO)-treated control cells, which may be arbitrarily assigned at 100% viability. The experiment may be repeated thrice under the same conditions.

[2] = system: four hepatoma cell lines (HepG2, Hep3B, Huh-7, BEL-7404); assay: MTT assay, mean over four hepatoma cell lines; format: cell-based; conditions: Homo sapiens, mean of HepG2, Hep3B, read-out: overall mean IC50 in the four hepatoma cell lines
Protocol: as §1

HepG2 cells = assay: Cell cycle analysis (propidium iodide, flow cytometry), HepG2; format: cell-based, human
Protocol: Cells (2×10^5) may be treated with ART and DHA (0, 1, 10, 25, and 50 μmol/L) as described above for 48 h. The harvested cells may be re-suspended in 200 μL of cold PBS, to which cold ethanol (600 μl) may be added, and the mixture may then be incubated for 2 h at 4° C. After centrifugation, the pellet may be washed with cold PBS, suspended in 500 μL PBS, and incubated with 50 μL RNase (20 μg/mL final concentration) for 30 min. The cells may be incubated with propidium iodide (50 μg/mL final concentration) for 30 min in the dark. The cell cycle distribution may be determined using a FACSAria instrument (BD Biosciences). The experiment may be repeated thrice under the same conditions.

Hep3B cells = assay: Annexin V-FITC apoptosis assay, Hep3B; format: cell-based, human
Protocol: (§2) ART- and DHA-induced apoptosis alone or in combination with gemcitabine in HepG2 and Hep3B cells or in combination with carboplatin in ovarian cancer cells may be determined by flow cytometry using the Annexin V-FITC Apoptosis Detection kit following the manufacturer's instructions. Briefly, 2×10^5 cells may be treated with ART and DHA (0, 1, 10, 25, and 50 mol/L) or 10 μg/L gemcitabine for 48 h. The cells may then be harvested, washed in PBS, and incubated with Annexin V and propidium iodide for staining in binding buffer at room temperature for 10 min in the dark. The stained cells may be analyzed using the FACSAria instrument.

[3] = system: A2780 ovarian carcinoma cells; assay: MTT cell viability assay, A2780; format: cell-based; conditions: Homo sapiens, A2780, 48 hrs
Text: Human ovarian IOSE144 (immortalized non-tumorigenic human ovarian surface epithelial cells) and ovarian carcinoma (A2780 and OVCAR-3) cells that may be obtained from the American Type Culture Collection (ATCC, Manassas, Va.) are gifts from Dr. Jing Fang (Institute for Nutritional Sciences, Shanghai, China). All cells may be cultured according to the ATCC instructions. The compounds (ARS, ART, ARM and DHA) may be dissolved in DMSO (<0.1%, final concentration).
as §1

OVCAR-3 cells = assay: Annexin V-FITC apoptosis assay, OVCAR-3; format: cell-based, human; conditions: for increase in apoptosis versus control: 24 hrs
Protocol: as §2, with “Briefly, 2×10^5 cells may be treated with ART and DHA (0, 1, 10, 25, and 50 mol/L) or 10 μg/L gemcitabine for 48 h.” left out

OVCAR-3 xenograft tumors = assay: OVCAR-3 xenograft model in nude mice; format: in vivo; conditions: 5 days/week
Protocol: Four to six week old female athymic nude mice (BALB/c, nu/nu) may be purchased from Shanghai Experimental Animal Center (Shanghai, China). Animal studies are approved by the Institute for Nutritional Sciences. The tumor xenograft model may be established as follows. Briefly, A2780 and OVCAR-3 cells may be harvested and re-suspended in serum-free RPMI 1640 medium containing 20% (v/v) Matrigel (BD Biosciences, Bedford, Mass., USA). Aliquots of cells (˜5×10^6 cells/0.2 ml) may be injected subcutaneously into the left inguinal area of the mice. The tumor growth and body weight of the mice may be monitored every other day. Tumor mass may be determined. Mice bearing palpable tumors (˜70 mg) may be randomly divided into treatment and control groups n=5 mice/group). CBP may be dissolved in saline, and DHA may be dissolved in cremophor EL:ethanol:saline (5:5:90, v/v/v). DHA may be administered via i.p. injection at doses of 10 and 25 mg/kg/5 days/week for 3 weeks) alone or combined with CBP (at a single dose of 120 mg/kg, once on day 0). The control group receives saline only. Mice may be killed on day 18. Tumors may be carefully excised, trimmed of extraneous fat or connective tissue, and homogenized in RIPA buffer (100 mg tumor tissue/1 ml RIPA) and prepared for immunoblotting analysis as described above.

[4] = HepG2, 10 μmol/L, 48 h (control 63.05%)
[5] = 1 μmol/L, 48 h (0 μmol/L: 0.8%)

SMILES: C[C@@H]1CC[C@H]2[C@@H](C)C(=O)O[C@@H]3O[C@@]4(C)CC[C@@H]1[C@]32OO4 [ART, artemisinin]
- IC20 [1]: 0.97 µM
- IC50 [1]: 10.4 µM
- IC80 [1]: 113 µM
- IC50 [2]: 10.8 µM
- cells in the G1 phase (HepG2 cells; [4]): 67.41%
- cells in the G1 phase (HepG2 cells; HepG2, 25 μmol/L, 48 h): 70.72%
- cells in the G1 phase (HepG2 cells; HepG2, 50 μmol/L, 48 h): 69.21%
- apoptotic cells (Hep3B cells; [5]): 2.25%
- apoptotic cells (Hep3B cells; 10 μmol/L, 48 h): 2.65%
- apoptotic cells (Hep3B cells; 25 μmol/L, 48 h): 4.8%
- apoptotic cells (Hep3B cells; 50 μmol/L, 48 h): 25.3%
- IC20 [3]: 0.73 µM
- IC50 [3]: 17.6 µM
- IC80 [3]: 426 µM

SMILES: C[C@H]1[C@@H](O)O[C@@H]2O[C@@]3(C)CC[C@H]4[C@H](C)CC[C@@H]1[C@@]24OO3 [DHA, dihydroartemisinin]
- IC20 [1]: 0.96 µM
- IC50 [1]: 10.3 µM
- IC80 [1]: 111 µM
- IC50 [2]: 10.6 µM
- cells in the G1 phase (HepG2 cells; [4]): 69.36%
- cells in the G1 phase (HepG2 cells; HepG2, 25 μmol/L, 48 h): 70.91%
- cells in the G1 phase (HepG2 cells; HepG2, 50 μmol/L, 48 h): 72.03%
- apoptotic cells (Hep3B cells; [5]): 2.15%
- apoptotic cells (Hep3B cells; 10 μmol/L, 48 h): 12.9%
- apoptotic cells (Hep3B cells; 25 μmol/L, 48 h): 28.75%
- apoptotic cells (Hep3B cells; 50 μmol/L, 48 h): 31.05%
- IC20 [3]: 0.83 µM
- IC50 [3]: 16.4 µM
- IC80 [3]: 328 µM
- increase in apoptosis versus control (OVCAR-3 cells; OVCAR-3, 25 μM): 18 fold
- increase in apoptosis versus control (OVCAR-3 cells; OVCAR-3, 50 μM): 22 fold
- rate of apoptosis (control regarded as 100%) (OVCAR-3 cells; OVCAR-3, 24 hrs, DHA 1 μM, CBP 500 μM, alone or combined): 266%
- tumor growth inhibition (OVCAR-3 xenograft tumors; DHA 10 mg/kg i.p.): 14%
- tumor growth inhibition (OVCAR-3 xenograft tumors; DHA 25 mg/kg i.p.): 37%
